In one series the target is T1, MMP‐7 (Homo sapiens, UniProt P09237).
T1 construct: GenScript (contract testing)
T1 sequence (P09237 95-267): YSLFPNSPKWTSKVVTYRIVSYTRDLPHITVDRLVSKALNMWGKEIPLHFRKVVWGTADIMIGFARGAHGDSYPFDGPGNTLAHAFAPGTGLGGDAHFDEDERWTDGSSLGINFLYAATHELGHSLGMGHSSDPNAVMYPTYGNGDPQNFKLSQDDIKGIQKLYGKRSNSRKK
Briefly: MMP enzyme activity assay. Type of series: biochemical. The procedure: Protease stock solutions (10 mmol/L) were diluted with assay buffer to make final test solutions containing no more than 2.0% DMSO. The samples were dispensed into plates; substrate was added and read with PHERAstar PLUS (BMG Labtech, Ortenberg, Germany) plate reader.

The test system of series [1] is collagenase‐induced mouse model of ICH. Also noted: method as in PMID 15800021. The settings on record: 100 mg/kg intraperitoneally for 48 hours (not with 1 mg/kg); cited from earlier work.
The target in another series is T2, MMP‐12 (Homo sapiens, UniProt P39900).
T2 construct: GenScript (contract testing)
T2 sequence (P39900 106-470, species assumed): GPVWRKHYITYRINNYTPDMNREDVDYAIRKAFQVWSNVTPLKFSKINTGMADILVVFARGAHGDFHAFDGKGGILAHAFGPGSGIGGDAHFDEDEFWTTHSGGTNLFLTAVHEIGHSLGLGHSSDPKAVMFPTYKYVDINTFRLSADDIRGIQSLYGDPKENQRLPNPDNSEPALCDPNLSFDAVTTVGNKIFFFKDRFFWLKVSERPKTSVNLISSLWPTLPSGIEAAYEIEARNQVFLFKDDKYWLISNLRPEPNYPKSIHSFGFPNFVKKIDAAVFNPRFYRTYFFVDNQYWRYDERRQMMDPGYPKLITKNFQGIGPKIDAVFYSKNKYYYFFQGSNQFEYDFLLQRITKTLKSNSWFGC
Briefly: MMP enzyme activity assay. The settings on record: read-out: MMP Inhibitory Activity (IC50), MMP‐12. Type of series: biochemical. The procedure: […]. Protease stock solutions (10 mmol/L) were diluted with assay buffer to make final test solutions containing no more than 2.0% DMSO. The samples were dispensed into plates; substrate was added and read with PHERAstar PLUS (BMG Labtech, Ortenberg, Germany) plate reader.

The test system of another series is MMP‐3. Also noted: method as in PMID 25686022. The note with it: previously reported; read-out: MMP Inhibitory Activity (IC50), MMP‐3; cited from earlier work.
The test system of the next series is MMP‐10. Also noted: method as in PMID 25686022. The settings on record: previously reported; read-out: MMP Inhibitory Activity (IC50), MMP‐10; cited from earlier work.
In series [2] the test system is mouse model of warfarin‐associated ICH. Also noted: method as in PMID 21127298. The note with it: cited from earlier work.

Consider two compounds from article PMC5669199, “CM352 Reduces Brain Damage and Improves Functional Recovery in a Rat Model of Intracerebral Hemorrhage” (Journal of the American Heart Association: Cardiovascular …, 2017).

What is called IC50 is the concentration that inhibits the measured activity by half. On to `CNC(=O)[C@H](Cc1c[nH]c2ccccc12)NC(=O)[C@@H](CC(=O)NO)CC(C)C` [GM6001], for which the IC50 was 9 nM on MMP‐7, 1.2 nM on MMP‐12, 20.7 nM in the series with MMP‐3 and […] in the series with MMP‐10. Also, in series [1], the “lesion volume and neurological outcome” value is “decrease in lesion volume and improved neurological outcome”.

With `NC[C@H]1CC[C@H](C(=O)O)CC1` [TXA, tranexamic acid], the effect on edema result in series [2] was “exacerbates edema”.
